Reference: BindingDB's records for PubMed 39326269 (Second Military Medical University)
Where a SMILES comes first, the peptide text is derived from it. Bridges are numbered along the chain shown (N, C = ends). [ ]: non-standard residue; d: D form. S5 = C=CCCC[C@](C)(N)C(=O)O

Tests used:
[1] = Inhibition of pERK in human ASPC1 cells measured after 18 hr
[2] = Inhibition of pERK in human ASPC1 cells measured after 1 hr
GTPase KRas = GTPase KRas (Homo sapiens, UniProt P01116); test: Binding affinity to KRas G12C mutant (unknown origin) assessed as dissociation constant by biolayer interferometry assay
GTPase KRas, sequence (P01116 whole entry G12C): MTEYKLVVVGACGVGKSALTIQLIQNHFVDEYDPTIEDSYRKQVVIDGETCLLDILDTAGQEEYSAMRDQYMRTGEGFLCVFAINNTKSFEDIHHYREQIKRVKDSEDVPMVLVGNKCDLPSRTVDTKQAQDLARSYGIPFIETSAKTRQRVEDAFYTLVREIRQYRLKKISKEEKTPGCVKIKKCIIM

| EC50 [1] | EC50 [2] | SMILES | Kd (GTPase KRas) |
| --- | --- | --- | --- |
| 1.5 µM | 1.2 µM | CC[C@H](C)[C@@H]1NC(=O)[C@H](Cc2ccc(O)cc2)NC(=O)[C@H](CC(C)C)NC(=O)[C@@H]2CCCN2C(=O)[C@H](NC(=O)[C@@H](CCCNC(=N)N)NC(=O)[C@@H](CCCNC(=N)N)NC(=O)[C@@H](CCCNC(=N)N)NC(=O)[C@@H](CCCNC(=N)N)NC(=O)[C@H](CCCCN=[N+]=[N-])NC(C)=O)CSSC[C@@H](C(=O)N[C@H](CCCNC(=N)N)C(=O)N[C@H](CCCNC(=N)N)C(=O)N[C@H](CCCNC(=N)N)C(=O)N[C@H](CCCNC(=N)N)C(N)=O)NC(=O)[C@H](C(C)C)NC(=O)[C@@H]2CCCN2C(=O)[C@H](CC(=O)O)NC(=O)[C@H](Cc2ccc(O)cc2)NC(=O)[C@](C)(CO)NC1=O |  |
|  |  | CC[C@H](C)[C@H](NC(=O)CNC(=O)[C@H](Cc1ccccc1)NC(C)=O)C(=O)N[C@@]1(C)CCCC=CCCC[C@@](C)(C(=O)N[C@@H](CC(C)C)C(=O)N[C@@H](CCCCN)C(=O)N[C@H](C(N)=O)[C@@H](C)O)NC(=O)[C@H](CC(N)=O)NC(=O)[C@H]([C@@H](C)O)NC(=O)[C@H](CC(C)C)NC1=O (Ac-FGI[S5]LTN[S5]LKT-NH2; staple 4-8) | 7.67 µM |
